Patent publication US10703764B2, “Benzopiperazine compositions as BET bromodomain inhibitors” (FORMA Therapeutics, Inc., priority 2013, dated 2020)

Tests used:
BRD4 BD1 = biological target: T1, BRD4 BD1 (Homo sapiens, UniProt O60885); assay: AlphaScreen binding assay, BRD4 Bromodomain 1
T1 construct: made in house
Experimental: (§1) The binding of Example compounds to BRD4 Bromodomain 1 and BRD4 Bromodomain 2 was assessed using 384-well AlphaScreen assay technology. His-epitope tagged BRD4 BD144-168 and BRD4 BD2333-460 were cloned, expressed, and purified to homogeneity. BRD4 BD1 and BRD4 BD2 binding and inhibition was assessed by monitoring the engagement of biotinylated Histone H4 (1-21) K5/8/12/16 tetra-acetylated peptide with the targets using the AlphaScreen technology (PerkinElmer). Specifically, in a 384-well black or white flat bottom plate, BRD4 BD1 (50 nM final) or BRD4 BD2 (100 nM final) was combined with peptide (50 nM final for BD1 or 100 nM final for BD2) in 50 mM HEPES (pH 7.3), 100 mM NaCl, 0.1% (w/v) BSA, and 0.01% (w/v) Triton X-100 either in the presence of DMSO (final 1.25% DMSO) or compound dilution series in DMSO. Alpha streptavidin donor beads and Nickel-chelate acceptor beads were added to a final concentration of 10 μg/ml each. After a minimum of 1 hour equilibration, plates were read on a BMG PHERAstar FS multi-label reader (BMG LabTech). The half maximal inhibitory concentration (IC50) values were calculated using IDBS Activity Base software with a four parameter logistic curve fit by the equation y=A+((B−A)/(1+((C/x)^D))), wherein A denotes the bottom plateau of the curve, B denotes the top plateau of the curve, C denotes the x value at the middle of the curve, D denotes the slope factor, x denotes the original known x values, and y denotes the original known y values. Data was fitted using the Levenburg Marquardt algorithm.

BRD4 BD2 = biological target: T2, BRD4 BD2 (Homo sapiens, UniProt O60885); assay: AlphaScreen binding assay, BRD4 Bromodomain 2
T2 construct: made in house
Experimental: as §1

IC50 (BRD4 BD1) [nM] | IC50 (BRD4 BD2) [nM] | SMILES
> 10000 | 50 to 500 | CC(=O)N1c2ccc(-c3ccc(S(C)(=O)=O)cc3)cc2N(C(=O)N2CCCC2)C[C@@H]1C [Example I-100, (S)-1-(2-methyl-6-(4-(methylsulfonyl)phenyl)-4-(pyrrolidine-1-carbonyl)-3,4-dihydroquinoxalin-1(2H)-yl)ethanone]
> 10000 | > 500 | CC(=O)N1c2ccc(C(=O)N3CCCC3)cc2N(C(=O)c2ccco2)C[C@@H]1C [Example I-101, (S)-1-(4-(furan-2-carbonyl)-2-methyl-6-(pyrrolidine-1-carbonyl)-3,4-dihydroquinoxalin-1(2H)-yl)ethanone]
> 10000 | > 500 | CC(=O)N1c2ccc(-c3ccc(S(C)(=O)=O)cc3)cc2N(C=O)C[C@@H]1C [Example I-102, (S)-4-acetyl-3-methyl-7-(4-(methylsulfonyl)phenyl)-3,4-dihydroquinoxaline-1(2H)-carbaldehyde]
> 10000 | > 500 | C[C@H]1CN(C(=O)c2ccco2)c2cc(-c3ccc(S(C)(=O)=O)cc3)ccc2N1C=O [Example I-103, (S)-4-(furan-2-carbonyl)-2-methyl-6-(4-(methylsulfonyl)phenyl)-3,4-dihydroquinoxaline-1(2H)-carbaldehyde]
> 10000 | > 500 | CC(=O)N1c2ccc(-c3ccc(S(C)(=O)=O)cc3)cc2N(C)C[C@@H]1C [Example I-104, (S)-1-(2,4-dimethyl-6-(4-(methylsulfonyl)phenyl)-3,4-dihydroquinoxalin-1(2H)-yl)ethanone]
> 10000 | 50 to 500 | CC(=O)N1c2ccc(-c3cnn(C4COC4)c3)cc2N(C(=O)CC(C)C)C[C@@H]1C [Example I-105, (S)-1-(4-acetyl-3-methyl-7-(1-(oxetan-3-yl)-1H-pyrazol-4-yl)-3,4-dihydroquinoxalin-1 (2H)-yl)-3-methylbutan-1-one]
> 10000 | 50 to 500 | CC(=O)N1c2ccc(-c3cnn(C4COC4)c3)cc2N(C(=O)C(F)F)C[C@@H]1C [Example I-106, (S)-1-(4-acetyl-3-methyl-7-(1-(oxetan-3-yl)-1H-pyrazol-4-yl)-3,4-dihydroquinoxalin-1(2H)-yl)-2,2-difluoroethanone]
1000 to 10000 | 50 to 500 | CC(=O)N1c2ccc(-c3cnn(C4COC4)c3)cc2N(C(=O)CC2CC2)C[C@@H]1C [Example I-107, (S)-1-(4-acetyl-3-methyl-7-(1-(oxetan-3-yl)-1H-pyrazol-4-yl)-3,4-dihydroquinoxalin-1(2H)-yl)-2-cyclopropylethanone]
> 10000 | 50 to 500 | CC(=O)N1c2ccc(-c3cnn(C4COC4)c3)cc2N(C(=O)CC(F)(F)F)C[C@@H]1C [Example I-108, (S)-1-(4-acetyl-3-methyl-7-(1-(oxetan-3-yl)-1H-pyrazol-4-yl)-3,4-dihydroquinoxalin-1 (2H)-yl)-3,3,3-trifluoropropan-1-one]
> 10000 | > 500 | CC(=O)N1c2ccc(-c3cnn(C4COC4)c3)cc2N(C(=O)C(C)C)C[C@@H]1C [Example I-109, (S)-1-(4-acetyl-3-methyl-7-(1-(oxetan-3-yl)-1H-pyrazol-4-yl)-3,4-dihydroquinoxalin-1 (2H)-yl)-2-methylpropan-1-one]
> 10000 | > 500 | CC(=O)N1c2ccc(-c3cnn(C4COC4)c3)cc2N(C(=O)C2CCOCC2)C[C@@H]1C [Example I-110, (S)-1-(2-methyl-6-(1-(oxetan-3-yl)-1H-pyrazol-4-yl)-4-(tetrahydro-2H-pyran-4-carbonyl)-3,4-dihydroquinoxalin-1(2H)-yl)ethanone]
1000 to 10000 | 50 to 500 | CC(=O)N1c2ccc(-c3cnn(C4COC4)c3)cc2N(C(=O)CC2CCCC2)C[C@@H]1C [Example I-111, (S)-1-(4-acetyl-3-methyl-7-(1-(oxetan-3-yl)-1H-pyrazol-4-yl)-3,4-dihydroquinoxalin-1(2H)-yl)-2-cyclopentylethanone]
> 10000 | > 500 | CC(=O)N1c2ccc(-c3cnn(C4COC4)c3)cc2N(C(=O)C(C)(C)Cl)C[C@@H]1C [Example I-115, (S)-1-(4-acetyl-3-methyl-7-(1-(oxetan-3-yl)-1H-pyrazol-4-yl)-3,4-dihydroquinoxalin-1(2H)-yl)-2-chloro-2-methylpropan-1-one]
1000 to 10000 | 50 to 500 | CC(=O)N1c2ccc(-c3cnn(Cc4ccncc4)c3)cc2N(C(=O)C2CC2)C[C@@H]1C [Example I-118, (S)-1-(4-(cyclopropanecarbonyl)-2-methyl-6-(1-(pyridin-4-ylmethyl)-1H-pyrazol-4-yl)-3,4-dihydroquinoxalin-1(2H)-yl)ethanone]
1000 to 10000 | 50 to 500 | CC(=O)N1c2ccc(-c3cnn(CC(=O)N4CCOCC4)c3)cc2N(C(=O)C2CC2)C[C@@H]1C [Example I-125, (S)-2-(4-(1-acetyl-4-(cyclopropanecarbonyl)-2-methyl-1,2,3,4-tetrahydroquinoxalin-6-yl)-1H-pyrazol-1-yl)-1-morpholinoethanone]
1000 to 10000 | 50 to 500 | CNC(=O)Cn1cc(-c2ccc3c(c2)N(C(=O)C2CC2)C[C@H](C)N3C(C)=O)cn1 [Example I-132, (S)-2-(4-(1-acetyl-4-(cyclopropanecarbonyl)-2-methyl-1,2,3,4-tetrahydroquinoxalin-6-yl)-1H-pyrazol-1-yl)-N-methylacetamide]

IC50 (BRD4 BD1) [nM] | IC50 (BRD4 BD2) [nM] | SMILES
1000 to 10000 | 50 to 500 | CC(=O)N1c2ccc(-c3cnn(CCC(=O)O)c3)cc2N(C(=O)C2CC2)C[C@@H]1C [Example I-136, (S)-3-(4-(1-acetyl-4-(cyclopropanecarbonyl)-2-methyl-1,2,3,4-tetrahydroquinoxalin-6-yl)-1H-pyrazol-1-yl)propanoic acid]
100 to 1000 | 50 to 500 | CC(=O)N1c2ccc(-c3cnn(Cc4noc(C)n4)c3)cc2N(C(=O)OC(C)C)C[C@@H]1C [Example I-138, (S)-isopropyl 4-acetyl-3-methyl-7-(1-((5-methyl-1,2,4-oxadiazol-3-yl)methyl)-1H-pyrazol-4-yl)-3,4-dihydroquinoxaline-1(2H)-carboxylate]
1000 to 10000 | 50 to 500 | CC(=O)N1c2ccc(-c3cnn(CCC(F)(F)F)c3)cc2N(C(=O)OC(C)C)C[C@@H]1C [Example I-142, (S)-isopropyl 4-acetyl-3-methyl-7-(1-(3,3,3-trifluoropropyl)-1H-pyrazol-4-yl)-3,4-dihydroquinoxaline-1(2H)-carboxylate]
1000 to 10000 | 50 to 500 | CC(=O)N1c2ccc(-c3cnn(CCN4CCOCC4)c3)cc2N(C(=O)C2CC2)C[C@@H]1C [Example I-151, (S)-1-(4-(cyclopropanecarbonyl)-2-methyl-6-(1-(2-morpholinoethyl)-1H-pyrazol-4-yl)-3,4-dihydroquinoxalin-1(2H)-yl)ethanone]
> 10000 | > 500 | CC(=O)N1c2ccc(-c3cnn(C4CC4)c3)nc2N(C(=O)Nc2ccc(F)cc2)C[C@@H]1C [Example I-192, (S)-1-acetyl-6-(1-cyclopropyl-1H-pyrazol-4-yl)-N-(4-fluorophenyl)-2-methyl-2,3-dihydropyrido[2,3-b]pyrazine-4(1H)-carboxamide]
> 10000 | > 500 | CC(=O)N1c2ccc(-c3cnn(C4CC4)c3)nc2N(C(=O)NC(C)C)C[C@@H]1C [Example I-193, (S)-1-acetyl-6-(1-cyclopropyl-1H-pyrazol-4-yl)-N-isopropyl-2-methyl-2,3-dihydropyrido[2,3-b]pyrazine-4(1H)-carboxamide]
1000 to 10000 | 50 to 500 | CC(=O)N1c2ccc(-c3ccc(S(C)(=O)=O)cc3)cc2N(C(=O)Oc2ccc(Cl)cc2)C[C@@H]1C [Example I-226]
> 10000 | > 500 | CC(=O)N1c2ccc(-c3ccc(S(C)(=O)=O)cc3)cc2N(C(=O)OCc2ccccc2)C[C@@H]1C [Example I-230]
1000 to 10000 | 50 to 500 | COC(=O)N1C[C@H](C)N(C(C)=O)c2ccc(-c3ccc(S(C)(=O)=O)cc3)cc21 [Example I-235]
1000 to 10000 | 50 to 500 | C#CCOC(=O)N1C[C@H](C)N(C(C)=O)c2ccc(-c3ccc(S(C)(=O)=O)cc3)cc21 [Example I-240]
1000 to 10000 | 50 to 500 | CC(=O)N1C[C@H](C)N(C(C)=O)c2ccc(-c3ccc(S(C)(=O)=O)cc3)cc21 [Example I-241]
> 10000 | > 500 | CC(=O)N1c2ccc(-c3ccc(S(C)(=O)=O)cc3)cc2N(C(=O)C(C)C)C[C@@H]1C [Example I-242]
> 10000 | > 500 | CC(=O)N1c2ccc(-c3ccc(S(C)(=O)=O)cc3)cc2N(C(=O)C(C)(C)C)C[C@@H]1C [Example I-243]
1000 to 10000 | 50 to 500 | CC(=O)N1c2ccc(-c3ccc(S(C)(=O)=O)cc3)cc2N(C(=O)C2CCCC2)C[C@@H]1C [Example I-244]
1000 to 10000 | 50 to 500 | CC(=O)N1c2ccc(-c3ccc(S(C)(=O)=O)cc3)cc2N(C(=O)CC2CCCC2)C[C@@H]1C [Example I-246]
> 10000 | > 500 | CC(=O)N1c2ccc(-c3ccc(S(C)(=O)=O)cc3)cc2N(C(=O)CC#N)C[C@@H]1C [Example I-247]
